This test concerns genotype A, "Long" strain RSV. Kind of test: RSV-A assay (CPE, ATPlite readout in Hep-2 cells). Type of test: cell-based. Conditions: human respiratory syncytial virus, HEp-2, Hep-2 cells, genotype A "Long" strain RSV, MOI 0.1; read-out: Human RSV-A (“Long” strain) EC50. An outline of the steps: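 Hep-2 cells (8,000/well) received 2-fold serial compound dilutions in duplicate and RSV Long strain at MOI 0.1. After 5 days' incubation, cell health was read as ATP by ATPlite luminescence, with virus-only and uninfected controls defining max and minimum CPE; EC50 reported.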
A general note: Cellular ATP, detected with luciferase, serves as a proxy for viable cell number.
As to `COc1cc(C(=O)NC[C@](O)(c2cc3c(c(-c4ccc(F)c(C)c4)n2)OC[C@]3(C)C(=O)NCC(C)(C)O)C(F)(F)F)cc2cc(C)cnc12` [Example 503], the EC50 was below 0.2 µM.
Regarding `Cc1cc(-c2nc([C@@](O)(CNC(=O)c3cc(OC4CC4)c4ncccc4c3)C(F)(F)F)cc3c2OC[C@]3(C)C(=O)NCC(C)(C)O)ccc1F` [Example 504], the EC50 was above 0.2 µM.
Consider `Cc1cc(-c2nc([C@@](O)(CNC(=O)c3ccc4nc(N)sc4c3)C(F)(F)F)cc3c2OC[C@]3(C)C(=O)NCC(C)(C)O)ccc1F` [Example 505], for which the EC50 was below 0.2 µM.
As to `CC(C)(O)CNC(=O)[C@@]1(C)COc2c1cc([C@@](O)(CNC(=O)c1cc(OCC(N)=O)c3ncccc3c1)C(F)(F)F)nc2-c1ccc(F)cc1` [Example 506], the EC50 is below 0.2 µM.
Then `Cc1cnc2c(OCC(N)=O)cc(C(=O)NC[C@](O)(c3cc4c(c(-c5ccc(F)cc5)n3)OC[C@]4(C)C(=O)NCC(C)(C)O)C(F)(F)F)cc2c1` [Example 507], with below 0.2 µM.
As to `C#Cc1nc([C@@](O)(CNC(=O)c2ccc(OC3CC3)c(OC)c2)C(F)(F)F)cc2c1OC[C@]2(C)C(N)=O` [Example 509], the concentration giving a half-maximal response (EC50) is above 0.2 µM.
Regarding `COc1cc(C(=O)NC[C@](O)(c2cc3c(c(C#Cc4ccc(F)cc4)n2)OC[C@]3(C)C(N)=O)C(F)(F)F)ccc1OC1CC1` [Example 510], the EC50 is above 0.2 µM.
Consider `COc1cc(C(=O)NC[C@](O)(c2cc3c(c(C#Cc4cc(F)c(F)c(F)c4)n2)OC[C@]3(C)C(N)=O)C(F)(F)F)ccc1OC1CC1` [Example 511], for which the EC50 is above 0.2 µM.
Then `COc1cc(C(=O)NC[C@](O)(c2cc3c(c(C#Cc4ccc(F)c(Cl)c4)n2)OC[C@]3(C)C(N)=O)C(F)(F)F)ccc1OC1CC1` [Example 512], with above 0.2 µM.
Regarding `COc1cc(C(=O)NC[C@](O)(c2cc3c(c(C#Cc4cccc(Cl)c4F)n2)OC[C@]3(C)C(N)=O)C(F)(F)F)ccc1OC1CC1` [Example 513], the EC50 was above 0.2 µM.
In the case of `COc1cc(C(=O)NC[C@](O)(c2cc3c(c(C#Cc4ccc(Cl)cc4F)n2)OC[C@]3(C)C(N)=O)C(F)(F)F)ccc1OC1CC1` [Example 514] it was above 0.2 µM.
With `COc1cc(C(=O)NC[C@](O)(c2cc3c(c(C#Cc4ccccc4)n2)OC[C@]3(C)C(N)=O)C(F)(F)F)ccc1OC1CC1` [Example 515], the EC50 was above 0.2 µM.
As to `COc1cc(C(=O)NC[C@](O)(c2cc3c(c(C#Cc4cccc(F)c4)n2)OC[C@]3(C)C(N)=O)C(F)(F)F)ccc1OC1CC1` [Example 516], the 50% effective concentration (EC50) was above 0.2 µM.
Regarding `COc1cc(C(=O)NC[C@](O)(c2cc3c(c(-c4cn(-c5ccc(F)cc5)nn4)n2)OC[C@]3(C)C(N)=O)C(F)(F)F)ccc1OC1CC1` [Example 517], the EC50 is above 0.2 µM.
With `C[C@]1(C(N)=O)COc2c1cc([C@@](O)(CNC(=O)c1ccc3ncc(C4CC4)cc3c1)C(F)(F)F)nc2-c1ccc(F)cc1` [Example 525], the EC50 was below 0.2 µM.
With `C[C@](F)(CNC(=O)c1cc(OC2CC2)c2ncccc2c1)c1cc2c(c(-c3ccc(F)cc3)n1)OC[C@]2(C)C(N)=O` [Example 545], the concentration for a half-maximal effect (EC50) is above 0.2 µM.
Then `Cc1cnc2c(NC(=O)C(F)(F)F)cc(C(=O)NC[C@](O)(c3cc4c(c(-c5ccc(F)cc5)n3)OC[C@]4(C)C(N)=O)C(F)(F)F)cc2c1` [Example 554], with below 0.2 µM; and `C[C@]1(C(=O)N2CCC(C#N)C2)COc2c1cc([C@@](O)(CNC(=O)c1cc(OC3CC3)c3ncccc3c1)C(F)(F)F)nc2-c1ccc(F)cc1` (stereo partly shown) [Example 555], with below 0.2 µM; and `C[C@]1(C(=O)N2CCC(=O)C2)COc2c1cc([C@@](O)(CNC(=O)c1cc(OC3CC3)c3ncccc3c1)C(F)(F)F)nc2-c1ccc(F)cc1` [Example 556], with below 0.2 µM.
In the case of `Cc1cnc2c(NC(=O)NC3COC3)cc(C(=O)NC[C@](O)(c3cc4c(c(-c5ccc(F)cc5)n3)OC[C@]4(C)C(N)=O)C(F)(F)F)cc2c1` [Example 559] it was below 0.2 µM; in that of `C[C@]1(C(N)=O)COc2c1cc([C@@](O)(CNC(=O)c1cc(OC3CC3)c3[nH]c(=O)ccc3c1)C(F)(F)F)nc2-c1ccc(F)cc1` [Example 584], below 0.2 µM.
For `C[C@]1(C(N)=O)COc2c1cc([C@@](O)(CNC(=O)c1cnn3cccnc13)C(F)(F)F)nc2-c1ccc(F)cc1` [Example 585], the EC50 is above 0.2 µM.
Take `COc1ccc2[nH]nc(C(=O)NC[C@](O)(c3cc4c(c(-c5ccc(F)cc5)n3)OC[C@]4(C)C(N)=O)C(F)(F)F)c2c1` [Example 586]: the EC50 was above 0.2 µM.
`C[C@]1(C(N)=O)COc2c1cc([C@@](O)(CNC(=O)c1ccc3cn[nH]c3c1)C(F)(F)F)nc2-c1ccc(F)cc1` [Example 587]: the EC50 was above 0.2 µM.
On to `C[C@]1(C(N)=O)COc2c1cc([C@@](O)(CNC(=O)c1cc3cc(Cl)ccc3[nH]1)C(F)(F)F)nc2-c1ccc(F)cc1` [Example 589], for which the EC50 was above 0.2 µM.
In the case of `Cn1ncc2cc(C(=O)NC[C@](O)(c3cc4c(c(-c5ccc(F)cc5)n3)OC[C@]4(C)C(N)=O)C(F)(F)F)ccc21` [Example 591] it was below 0.2 µM.
`COc1ccc(CC(=O)NC[C@](O)(c2cc3c(c(-c4ccc(F)cc4)n2)OC[C@]3(C)C(N)=O)C(F)(F)F)cc1OC` [Example 592]: the EC50 was above 0.2 µM.
As for `COc1ccc(CC(=O)NC[C@](O)(c2cc3c(c(-c4ccc(F)cc4)n2)OC[C@]3(C)C(N)=O)C(F)(F)F)cc1` [Example 593], the EC50 is above 0.2 µM.
Consider `COc1cccc(CC(=O)NC[C@](O)(c2cc3c(c(-c4ccc(F)cc4)n2)OC[C@]3(C)C(N)=O)C(F)(F)F)c1` [Example 594], for which the EC50 was above 0.2 µM.
For `C[C@]1(C(N)=O)COc2c1cc([C@@](O)(CNC(=O)c1cc3c(F)cc(F)cc3[nH]1)C(F)(F)F)nc2-c1ccc(F)cc1` [Example 596], the EC50 is below 0.2 µM.
Then `C[C@]1(C(N)=O)COc2c1cc([C@@](O)(CNC(=O)c1cc3c(F)cc(Cl)cc3[nH]1)C(F)(F)F)nc2-c1ccc(F)cc1` [Example 597], with below 0.2 µM.
Turning to `COc1ccc2[nH]c(C(=O)NC[C@](O)(c3cc4c(c(-c5ccc(F)cc5)n3)OC[C@]4(C)C(N)=O)C(F)(F)F)cc2c1` [Example 598], the EC50 was below 0.2 µM.
In the case of `C[C@]1(C(N)=O)COc2c1cc([C@@](O)(CNC(=O)c1cc3ccccc3[nH]1)C(F)(F)F)nc2-c1ccc(F)cc1` [Example 599], the EC50 is above 0.2 µM.
`C[C@]1(C(N)=O)COc2c1cc([C@@](O)(CNC(=O)c1cc3c(F)cccc3[nH]1)C(F)(F)F)nc2-c1ccc(F)cc1` [Example 601]: the EC50 is above 0.2 µM.
As for `C[C@]1(C(N)=O)COc2c1cc([C@@](O)(CNC(=O)c1cc3c(Cl)cccc3[nH]1)C(F)(F)F)nc2-c1ccc(F)cc1` [Example 602], the EC50 is above 0.2 µM.
For `COc1cccc2cc(C(=O)NC[C@](O)(c3cc4c(c(-c5ccc(F)cc5)n3)OC[C@]4(C)C(N)=O)C(F)(F)F)[nH]c12` [Example 603], the EC50 is above 0.2 µM.
As for `C[C@]1(C(N)=O)COc2c1cc([C@@](O)(CNC(=O)c1cc3ccc(F)cc3[nH]1)C(F)(F)F)nc2-c1ccc(F)cc1` [Example 604], the EC50 was below 0.2 µM.
`C[C@]1(C(N)=O)COc2c1cc([C@@](O)(CNC(=O)c1cc3ccc(Cl)cc3[nH]1)C(F)(F)F)nc2-c1ccc(F)cc1` [Example 605]: the EC50 is below 0.2 µM.
Consider `C[C@]1(C(N)=O)COc2c1cc([C@@](O)(CNC(=O)c1ccc3c(c1)OCC(=O)N3)C(F)(F)F)nc2-c1ccc(F)cc1` [Example 606], for which the EC50 was above 0.2 µM.
Then `C[C@]1(C(N)=O)COc2c1cc([C@@](O)(CNC(=O)c1ccc3c(c1)NCCO3)C(F)(F)F)nc2-c1ccc(F)cc1` [Example 607], with below 0.2 µM.
`COc1cc(C(=O)NC[C@](O)(c2cc3c(c(-c4ccc(F)cc4)n2)OC[C@]3(C)C(N)=O)C(F)(F)F)cc2cc3c(nc12)CCCC3` [Example 612]: the EC50 was below 0.2 µM.
With `C[C@]1(C(N)=O)COc2c1cc([C@@](O)(CNC(=O)c1cc(Oc3ncccn3)c3ncccc3c1)C(F)(F)F)nc2-c1ccc(F)cc1` [Example 614], the EC50 was above 0.2 µM.
Regarding `COc1cc(C(=O)NC[C@](O)(c2cc3c(c(-c4ccc(F)cc4)n2)OC[C@]3(C)C(N)=O)C(F)(F)F)cc2cc(Br)cnc12` [Example 618], the EC50 was below 0.2 µM.
`Cc1cnc2c(NC(=O)C3(C)COC3)cc(C(=O)NC[C@](O)(c3cc4c(c(-c5ccc(F)cc5)n3)OC[C@]4(C)C(N)=O)C(F)(F)F)cc2c1` [Example 620]: the EC50 was below 0.2 µM.
In the case of `Cc1cnc2c(NC(=O)Nc3cccnc3)cc(C(=O)NC[C@](O)(c3cc4c(c(-c5ccc(F)cc5)n3)OC[C@]4(C)C(N)=O)C(F)(F)F)cc2c1` [Example 625], the EC50 is below 0.2 µM.
With `Cc1ccc2cc(C(=O)NC[C@](O)(c3cc4c(c(-c5ccc(F)cc5)n3)OC[C@]4(C)C(N)=O)C(F)(F)F)cc(NC(=O)NC3CC3)c2n1` [Example 628], the EC50 was above 0.2 µM.
Turning to `Cc1cnc2c(OCC(F)F)cc(C(=O)NC[C@](O)(c3cc4c(c(-c5ccc(F)cc5)n3)OC[C@]4(C)C(N)=O)C(F)(F)F)cc2c1` [Example 629], the concentration giving a half-maximal response (EC50) was below 0.2 µM.
In the case of `Cc1cnc2c(NC(=O)c3ncc(C)o3)cc(C(=O)NC[C@](O)(c3cc4c(c(-c5ccc(F)cc5)n3)OC[C@]4(C)C(N)=O)C(F)(F)F)cc2c1` [Example 630], the EC50 is below 0.2 µM.
Turning to `Cc1cnc2c(NC(=O)NNC3CC3)cc(C(=O)NC[C@](O)(c3cc4c(c(-c5ccc(F)cc5)n3)OC[C@]4(C)C(N)=O)C(F)(F)F)cc2c1` [Example 631], the EC50 is below 0.2 µM.
On to `Cc1cnc2c(NC(=O)NNCC(C)(C)O)cc(C(=O)NC[C@](O)(c3cc4c(c(-c5ccc(F)cc5)n3)OC[C@]4(C)C(N)=O)C(F)(F)F)cc2c1` [Example 632], for which the EC50 is below 0.2 µM.
Take `Cn1cc2cc(C(=O)NC[C@](O)(c3cc4c(c(-c5ccc(F)cc5)n3)OC[C@]4(C)C(N)=O)C(F)(F)F)ccc2n1` [Example 637]: the EC50 is below 0.2 µM.
Then `Cn1cc2cc(C(=O)NC[C@](O)(c3cc4c(c(-c5ccc(F)c(Cl)c5)n3)OC[C@]4(C)C(N)=O)C(F)(F)F)ccc2n1` [Example 639], with below 0.2 µM.

In general, EC50 refers to the concentration that produces a half-maximal response.

The values above are taken from patent US11505558B1, “Antiviral heterocyclic compounds” (Enanta Pharmaceuticals, Inc., priority 2019, dated 2022).
